According to US3939277A, “Insecticidal biodegradable analogues of DDT” (priority 1973, dated 1976):
Values after ≈ are worked out from the molar mass of the structure shown.

Tests used:
[1] = system: multifunction oxidase (MFO) enzymes; settings: background statement; cited from earlier work
[2] = system: larvae of the mosquito Culex pipiens quinquefasciatus; assay: Toxicity to mosquito larvae as described by WHO (VBC/1968), Culex pipiens quinquefasciatus; assay type: in vivo
[3] = system: female house flies, Musca domestica, DDT-resistant (Rsp); assay: Topical application to female house flies, DDT-resistant (Rsp) strain; settings: read-out: topical LD50 female housefly, DDT-resistant
Experimental: (§1) Compositions of the present invention were tested for insecticidal activities determined by standard methods, and compared with the activities of DDT and other symmetrical analogues of DDT, e.g. methoxychlor. In these tests, female house flies, Musca domestica, under CO2 anesthesia, were treated with topical application of 1 ul drops of w/v solutions of the insecticides in acetone. Three replicates of 20 flies 2-4 days old were treated on the pronotum at each dosage, and at least 5 dosages were used to establish each dosage versus mortality curve. Mortalities were determined by holding the flies at 72° F. (22° C.) with 40% sucrose solution as food. Topical applications were made to both susceptible (SNAIDM) and DDT-resistant (Rsp) strains in exactly the same manner. The results of these evaluations are reported in Table II as LD50 values in ug. of toxicant per gram of insect using the average weight of the house fly as 20 mg. Evaluations of the toxicity of the same compositions to the larvae of the mosquitoes Culex pipiens quinquefasciatus and Anopheles albimanus were made as described by WHO (VBC/1968) and the results are also shown in Table II.

[4] = system: larvae of the mosquito Anopheles albimanus; assay: Toxicity to mosquito larvae as described by WHO (VBC/1968), Anopheles albimanus; assay type: in vivo
[5] = system: female house flies, Musca domestica, susceptible (SNAIDM); assay: Topical application to female house flies, susceptible (SNAIDM) strain; settings: read-out: topical LD50 female housefly, Susceptible
Experimental: as §1

[6] = background statement; cited from earlier work
insects = settings: background statement, cited from earlier work; for insecticidal activity (in words): compared with DDT towards other species of insects; for insecticidal activity (in words), general: toward certain species of insects

Structure (SMILES)	susceptibility to attack / detoxication by MFO enzymes [1]	LC50 [2] [µg/mL]	LD50 [3] [mg/kg]	LC50 [4] [µg/mL]	LD50 [5] [mg/kg]	lipid solubility [6]	water solubility [6]	insecticidal activity (in words) (insects)	insecticidal activity (in words), general (insects)
Clc1ccc(C(c2ccc(Cl)cc2)C(Cl)Cl)cc1 [DDD, 1,1-dichloro 2,2-bis-(p-chlorophenyl) ethane]	highly resistant to detoxication by MFO enzymes								
ClC(Cl)=C(c1ccc(Cl)cc1)c1ccc(Cl)cc1 [DDE, 1,1-dichloro-2,2-bis-(p-chloro-phyenyl)ethylene]	highly resistant to detoxication by MFO enzymes								
Clc1ccc(C(c2ccc(Cl)cc2)C(Cl)(Cl)Cl)cc1 [DDT, 1,1,1-trichloro-2,2-bis(p-chlorophenyl)ethane, reference compound]	highly resistant to detoxication by MFO enzymes	0.07 (≈ 0.197 µM)	170	0.016 (≈ 0.0451 µM)	14	high lipid solubility	very low water solubility		
COc1ccc(C(c2ccc(SC)cc2)C(Cl)(Cl)Cl)cc1 (stereo not drawn) [Example I, 2-(p-methoxyphenyl)-2-(p-methylthiophenyl)-1,1,1-trichloroethane]		0.11 (≈ 0.304 µM)	80	0.044 (≈ 0.122 µM)	23.5				
COc1ccc(C(c2ccc(C)cc2)C(Cl)(Cl)Cl)cc1 (stereo not drawn) [Example III]		0.085 (≈ 0.258 µM)	62.5	0.12 (≈ 0.364 µM)	23.5				
CCOc1ccc(C(c2ccc(SC)cc2)C(Cl)(Cl)Cl)cc1 (stereo not drawn) [Example II]		0.07 (≈ 0.186 µM)	85	0.054 (≈ 0.144 µM)	32				
CCOc1ccc(C(c2ccc(C)cc2)C(Cl)(Cl)Cl)cc1 (stereo not drawn) [Example IV]		0.13 (≈ 0.378 µM)	27	0.11 (≈ 0.32 µM)	9				
CCc1ccc(C(c2ccc(C)cc2)C(Cl)(Cl)Cl)cc1 (stereo not drawn) [Example VI]		0.08 (≈ 0.244 µM)	28	0.23 (≈ 0.702 µM)	11				
CCCOc1ccc(C(c2ccc(C)cc2)C(Cl)(Cl)Cl)cc1 (stereo not drawn) [Example V]		0.04 (≈ 0.112 µM)	55	0.2 (≈ 0.559 µM)	20				
COc1ccc(C(c2ccc(OC)cc2)C(Cl)(Cl)Cl)cc1 [Methoxychlor, 1,1,1-trichloro-2,2-bis-(pmethoxyphenyl)ethane, reference compound]	readily attacked by MFO enzymes	0.067 (≈ 0.194 µM)	48	0.18 (≈ 0.521 µM)	45			considerably less insecticidal activity than DDT towards other species of insects	satisfactory insecticidal activity toward certain species of insects
CSc1ccc(C(c2ccc(SC)cc2)C(Cl)(Cl)Cl)cc1 [methiochlor, 1,1,1-trichloro-2,2-bis-(pmethiophenyl)ethane]	readily attacked by MFO enzymes							considerably less insecticidal activity than DDT towards other species of insects	satisfactory insecticidal activity toward certain species of insects
Cc1ccc(C(c2ccc(C)cc2)C(Cl)(Cl)Cl)cc1 [methylchor, 1,1,1-trichloro-2,2-bis (p methylphenyl)ethane]								considerably less insecticidal activity than DDT towards other species of insects	satisfactory insecticidal activity toward certain species of insects
